Laboratory results as given in ChEMBL document CHEMBL1201862, “PubChem BioAssay data set” (2004).
Each block holds one compound with its values, some of them ahead of it. Activity calls are given as the source filed them.

Legend:
[1] = target: T1, Voltage-gated N-type calcium channel alpha-1B subunit/Amyloid beta A4 precursor protein-binding family A member 1 (Homo sapiens, UniProt Q00975+Q02410); type: protein assay
[2] = target: T1, Voltage-gated N-type calcium channel alpha-1B subunit/Amyloid beta A4 precursor protein-binding family A member 1; type: protein assay; remark: listed apart in the source
[3] = C. albicans growth with fluconazole, confirmation, fluorescence, retest (AID 2467); type: functional, cell-based
[4] = cytotoxicity in HEK-293T cells, dose response, cytotoxicity control for TCR NF-kB inhibitor project, luminescence, T-cell screen hits (AID 489026); type: functional, cell-based;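 further: cells exposed to compound about 14 hours before the viability readout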
[5] = NIH-3T3 fibroblast cytotoxicity, dose response, cytotoxicity control, cell-based, fluorescence, Alamar Blue, secondary assay (AID 2327); type: functional;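 further: NIH-3T3 mouse fibroblasts cultured with fluconazole at 8 µg/mL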
[6] = cells
[7] = cytotoxicity toward NIH3T3 fibroblasts, dose response, counter-screen, cell-based, ATP luminescence, mouse fibroblasts (AID 2010); type: functional;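 further: cells exposed to compound for about 90 hours before reading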
[8] = inhibitors of intracellular T. cruzi replication, confirmation, NIH3T3 host cells, beta-gal luminescence (AID 2044); type: functional, cell-based;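 further: intracellular parasites grown in NIH/3T3 mouse fibroblasts as host cells; luminescent beta-galactosidase reporter signal from transgenic T. cruzi replicating inside host cells; inhibitors lower the luminescence signal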
[9] = target: T2, Short transient receptor potential channel 4 (Mus musculus, UniProt Q9QUQ5); test: mouse TRPC4 channel activators, dose response, cell-based, HEK293 TRPC4/mu-opioid, Fluo-4 calcium (AID 434937); type: functional
T2 sequence (Q9QUQ5 whole entry): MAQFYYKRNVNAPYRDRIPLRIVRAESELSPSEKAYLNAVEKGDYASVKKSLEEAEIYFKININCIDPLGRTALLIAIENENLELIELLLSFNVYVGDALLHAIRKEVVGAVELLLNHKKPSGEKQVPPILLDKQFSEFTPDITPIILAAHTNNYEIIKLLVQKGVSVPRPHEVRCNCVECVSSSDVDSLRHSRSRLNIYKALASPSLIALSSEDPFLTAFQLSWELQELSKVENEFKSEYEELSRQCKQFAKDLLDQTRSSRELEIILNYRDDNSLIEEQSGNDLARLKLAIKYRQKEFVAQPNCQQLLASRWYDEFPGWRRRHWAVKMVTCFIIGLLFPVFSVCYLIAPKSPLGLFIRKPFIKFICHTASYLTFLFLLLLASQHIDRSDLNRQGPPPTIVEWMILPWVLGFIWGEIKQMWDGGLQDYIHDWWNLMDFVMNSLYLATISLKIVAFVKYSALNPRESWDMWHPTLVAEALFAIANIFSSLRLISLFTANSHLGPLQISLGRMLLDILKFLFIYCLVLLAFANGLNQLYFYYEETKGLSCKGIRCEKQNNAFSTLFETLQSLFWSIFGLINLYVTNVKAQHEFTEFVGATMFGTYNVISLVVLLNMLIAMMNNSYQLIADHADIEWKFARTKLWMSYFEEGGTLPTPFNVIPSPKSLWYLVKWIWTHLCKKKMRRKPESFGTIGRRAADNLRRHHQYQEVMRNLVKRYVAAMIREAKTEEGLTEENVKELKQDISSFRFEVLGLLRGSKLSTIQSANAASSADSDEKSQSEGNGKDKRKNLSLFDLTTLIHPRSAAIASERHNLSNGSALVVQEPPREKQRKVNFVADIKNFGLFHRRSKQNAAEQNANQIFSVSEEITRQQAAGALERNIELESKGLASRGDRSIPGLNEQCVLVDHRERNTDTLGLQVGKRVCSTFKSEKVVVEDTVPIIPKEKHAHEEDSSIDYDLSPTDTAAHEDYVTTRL

[10] = target: T3, Aminopeptidase N (Plasmodium falciparum FcB1/Columbia, UniProt O96935); test: P. falciparum M1AAP inhibitors, biochemical, fluorogenic H-Leu-NHMec substrate, 1536-well (AID 1445); set-up: species or system Plasmodium falciparum 3D7, 3D7
T3 sequence (O96935 whole entry): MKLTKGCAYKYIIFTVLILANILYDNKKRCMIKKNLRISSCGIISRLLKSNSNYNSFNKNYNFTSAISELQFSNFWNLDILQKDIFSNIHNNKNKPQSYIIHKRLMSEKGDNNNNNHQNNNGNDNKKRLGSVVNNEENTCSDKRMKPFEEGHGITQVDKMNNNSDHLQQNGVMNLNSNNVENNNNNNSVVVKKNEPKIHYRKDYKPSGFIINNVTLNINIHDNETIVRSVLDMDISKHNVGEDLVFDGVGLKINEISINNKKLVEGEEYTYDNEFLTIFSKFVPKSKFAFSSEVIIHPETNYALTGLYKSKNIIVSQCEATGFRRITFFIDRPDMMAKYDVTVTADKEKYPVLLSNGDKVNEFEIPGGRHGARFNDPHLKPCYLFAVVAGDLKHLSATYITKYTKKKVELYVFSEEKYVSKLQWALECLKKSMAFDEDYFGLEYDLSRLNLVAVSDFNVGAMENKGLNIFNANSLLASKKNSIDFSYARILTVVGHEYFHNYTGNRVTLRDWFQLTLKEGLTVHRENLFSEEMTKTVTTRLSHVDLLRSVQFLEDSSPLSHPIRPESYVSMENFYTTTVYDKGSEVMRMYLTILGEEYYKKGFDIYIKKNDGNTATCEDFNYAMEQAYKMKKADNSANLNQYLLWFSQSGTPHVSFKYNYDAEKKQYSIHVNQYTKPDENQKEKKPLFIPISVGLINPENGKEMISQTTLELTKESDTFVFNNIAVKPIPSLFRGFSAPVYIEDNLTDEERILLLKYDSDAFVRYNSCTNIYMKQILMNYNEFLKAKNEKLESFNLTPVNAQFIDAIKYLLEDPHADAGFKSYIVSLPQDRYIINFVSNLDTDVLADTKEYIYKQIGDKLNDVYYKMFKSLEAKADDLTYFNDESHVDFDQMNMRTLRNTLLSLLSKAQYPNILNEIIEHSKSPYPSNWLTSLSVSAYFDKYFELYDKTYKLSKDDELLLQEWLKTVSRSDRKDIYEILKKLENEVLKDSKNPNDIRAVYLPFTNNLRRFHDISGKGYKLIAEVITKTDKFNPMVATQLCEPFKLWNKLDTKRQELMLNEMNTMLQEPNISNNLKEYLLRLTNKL

[11] = cytotoxicity in HPDE-C7 cells, cell-based, fluorescence, HTS (AID 430); type: functional; conditions: Homo sapiens
[12] = cytotoxicity in KRAS-transformed pancreatic duct cells, primary screen, cell-based, fluorescence, HTS (AID 431); type: functional; conditions: Homo sapiens;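 further: cell line used: HPDE-C7K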
[13] = cytotoxicity in HEK-293T cells, dose response, cytotoxicity control for BCR NF-kB inhibitor project, luminescence, B-cell screen hits (AID 489021); type: functional, cell-based;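 further: HEK-293T cells carrying an NF-kB luciferase reporter; cells exposed to compound for about 14 hours before viability readout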
[14] = target: T4, Leucine aminopeptidase (Plasmodium falciparum 3D7, UniProt Q8IL11); test: P. falciparum M17LAP inhibitors, primary screen, biochemical, fluorogenic H-Leu-NHMec substrate, 1536-well (AID 1619); type: functional
T4 sequence (Q8IL11 whole entry): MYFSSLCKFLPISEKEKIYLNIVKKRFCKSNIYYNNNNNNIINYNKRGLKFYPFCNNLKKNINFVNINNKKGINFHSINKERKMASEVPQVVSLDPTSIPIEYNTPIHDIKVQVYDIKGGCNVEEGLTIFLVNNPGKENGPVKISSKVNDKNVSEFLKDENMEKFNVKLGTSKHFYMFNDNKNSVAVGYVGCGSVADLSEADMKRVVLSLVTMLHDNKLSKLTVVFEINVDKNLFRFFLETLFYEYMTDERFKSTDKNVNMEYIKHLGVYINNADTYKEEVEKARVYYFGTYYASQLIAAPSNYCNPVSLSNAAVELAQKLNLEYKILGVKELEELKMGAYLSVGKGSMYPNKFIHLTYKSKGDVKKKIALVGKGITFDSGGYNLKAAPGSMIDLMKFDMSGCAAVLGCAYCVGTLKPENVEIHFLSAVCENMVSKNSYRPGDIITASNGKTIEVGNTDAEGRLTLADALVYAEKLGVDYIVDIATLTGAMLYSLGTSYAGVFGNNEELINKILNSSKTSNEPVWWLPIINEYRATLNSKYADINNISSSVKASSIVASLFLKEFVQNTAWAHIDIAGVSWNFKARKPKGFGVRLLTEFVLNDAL

T1 sequence (Q00975 whole entry): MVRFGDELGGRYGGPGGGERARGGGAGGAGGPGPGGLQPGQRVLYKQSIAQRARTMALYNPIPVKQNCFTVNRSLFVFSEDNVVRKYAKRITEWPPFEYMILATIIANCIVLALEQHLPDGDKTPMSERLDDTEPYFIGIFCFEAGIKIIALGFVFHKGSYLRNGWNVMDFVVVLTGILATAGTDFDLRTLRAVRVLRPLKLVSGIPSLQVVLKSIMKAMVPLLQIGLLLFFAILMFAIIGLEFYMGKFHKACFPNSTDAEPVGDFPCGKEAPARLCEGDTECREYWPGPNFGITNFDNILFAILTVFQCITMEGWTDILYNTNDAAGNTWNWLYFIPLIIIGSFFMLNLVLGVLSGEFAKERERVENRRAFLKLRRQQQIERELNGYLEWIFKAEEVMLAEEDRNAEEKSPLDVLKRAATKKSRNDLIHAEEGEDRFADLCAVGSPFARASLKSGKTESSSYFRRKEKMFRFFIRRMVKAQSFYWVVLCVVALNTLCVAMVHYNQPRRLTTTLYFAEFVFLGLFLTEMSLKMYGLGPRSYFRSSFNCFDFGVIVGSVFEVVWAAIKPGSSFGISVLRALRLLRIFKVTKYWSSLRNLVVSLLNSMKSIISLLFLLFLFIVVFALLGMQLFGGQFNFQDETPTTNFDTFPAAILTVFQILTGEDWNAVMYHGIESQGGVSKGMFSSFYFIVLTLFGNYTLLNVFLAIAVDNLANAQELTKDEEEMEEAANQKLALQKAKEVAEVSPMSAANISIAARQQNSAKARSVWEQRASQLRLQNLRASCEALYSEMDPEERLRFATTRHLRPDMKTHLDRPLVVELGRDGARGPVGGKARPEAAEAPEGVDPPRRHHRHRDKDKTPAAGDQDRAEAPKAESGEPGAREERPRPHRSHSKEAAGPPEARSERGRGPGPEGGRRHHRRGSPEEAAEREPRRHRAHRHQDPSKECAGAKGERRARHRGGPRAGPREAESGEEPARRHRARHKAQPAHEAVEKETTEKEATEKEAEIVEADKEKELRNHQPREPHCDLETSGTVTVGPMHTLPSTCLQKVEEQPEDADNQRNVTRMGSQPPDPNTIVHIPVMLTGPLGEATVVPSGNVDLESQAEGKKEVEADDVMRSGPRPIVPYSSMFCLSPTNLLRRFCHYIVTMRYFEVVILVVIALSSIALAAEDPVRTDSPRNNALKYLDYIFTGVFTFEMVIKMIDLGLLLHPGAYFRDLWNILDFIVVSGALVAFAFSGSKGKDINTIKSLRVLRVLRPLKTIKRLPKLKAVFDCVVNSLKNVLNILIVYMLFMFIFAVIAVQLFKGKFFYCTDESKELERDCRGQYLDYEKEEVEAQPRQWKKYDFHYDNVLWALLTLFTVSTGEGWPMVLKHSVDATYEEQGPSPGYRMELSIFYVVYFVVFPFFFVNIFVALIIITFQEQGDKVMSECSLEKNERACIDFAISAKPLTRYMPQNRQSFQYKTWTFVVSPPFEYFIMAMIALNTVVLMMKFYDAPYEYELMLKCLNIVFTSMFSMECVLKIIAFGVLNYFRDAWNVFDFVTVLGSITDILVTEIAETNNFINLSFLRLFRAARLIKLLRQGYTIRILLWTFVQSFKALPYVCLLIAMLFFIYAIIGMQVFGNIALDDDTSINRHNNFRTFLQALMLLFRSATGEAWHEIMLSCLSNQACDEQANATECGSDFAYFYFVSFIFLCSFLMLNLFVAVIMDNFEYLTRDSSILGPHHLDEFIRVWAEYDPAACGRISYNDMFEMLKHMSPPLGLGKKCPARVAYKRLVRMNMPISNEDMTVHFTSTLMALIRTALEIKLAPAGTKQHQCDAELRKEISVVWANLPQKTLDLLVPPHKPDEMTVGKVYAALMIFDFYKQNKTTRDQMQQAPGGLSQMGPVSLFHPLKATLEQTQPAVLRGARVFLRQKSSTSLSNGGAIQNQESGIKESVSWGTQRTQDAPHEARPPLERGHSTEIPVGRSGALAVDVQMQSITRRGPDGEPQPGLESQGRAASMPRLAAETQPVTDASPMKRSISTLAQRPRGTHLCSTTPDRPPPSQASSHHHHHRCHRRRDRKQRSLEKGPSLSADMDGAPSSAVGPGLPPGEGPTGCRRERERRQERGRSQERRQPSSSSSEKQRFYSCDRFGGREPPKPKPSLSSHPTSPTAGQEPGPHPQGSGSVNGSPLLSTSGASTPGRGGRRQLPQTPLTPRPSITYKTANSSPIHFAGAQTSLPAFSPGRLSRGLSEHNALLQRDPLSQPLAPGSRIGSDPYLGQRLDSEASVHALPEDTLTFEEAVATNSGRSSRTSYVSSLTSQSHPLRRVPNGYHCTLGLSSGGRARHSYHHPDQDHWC
T1 sequence (Q02410 whole entry): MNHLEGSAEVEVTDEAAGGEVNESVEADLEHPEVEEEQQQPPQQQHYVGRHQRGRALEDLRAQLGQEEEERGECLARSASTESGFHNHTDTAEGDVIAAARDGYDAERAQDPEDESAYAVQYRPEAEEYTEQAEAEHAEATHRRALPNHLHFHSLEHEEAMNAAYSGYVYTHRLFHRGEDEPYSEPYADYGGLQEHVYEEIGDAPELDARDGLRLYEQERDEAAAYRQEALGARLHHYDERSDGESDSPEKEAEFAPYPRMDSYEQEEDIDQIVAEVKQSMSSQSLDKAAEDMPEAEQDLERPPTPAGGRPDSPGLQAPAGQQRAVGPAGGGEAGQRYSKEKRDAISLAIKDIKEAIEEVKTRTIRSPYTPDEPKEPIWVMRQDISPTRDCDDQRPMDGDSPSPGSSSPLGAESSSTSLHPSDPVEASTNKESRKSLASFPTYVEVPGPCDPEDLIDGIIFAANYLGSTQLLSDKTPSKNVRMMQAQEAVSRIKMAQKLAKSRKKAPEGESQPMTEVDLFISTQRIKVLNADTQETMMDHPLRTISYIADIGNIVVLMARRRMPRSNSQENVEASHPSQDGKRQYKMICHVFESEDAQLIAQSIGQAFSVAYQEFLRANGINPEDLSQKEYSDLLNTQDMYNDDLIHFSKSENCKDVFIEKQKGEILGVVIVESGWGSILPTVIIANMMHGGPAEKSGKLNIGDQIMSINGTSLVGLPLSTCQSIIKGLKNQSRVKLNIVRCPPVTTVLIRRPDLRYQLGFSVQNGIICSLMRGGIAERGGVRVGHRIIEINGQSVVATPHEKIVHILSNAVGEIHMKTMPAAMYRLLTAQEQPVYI

- IC50 [1]: > 50 µM (inactive)
- IC50 [2]: 8.45 µM (active)
Structure (SMILES): O=C(CCN1C(=O)/C(=C/c2ccc(Cl)cc2)SC1=S)NC1C=CS(=O)(=O)C1 (configuration not stated)

Structure (SMILES): CCCCCCCn1c2c(c(=N)c3ccccc31)CCC2
- EC50 [3]: 4.4 µM (active)
- IC50 [4]: 72.2 µM (inactive)
- EC50 [5]: > 160 µM (inactive)
- EC50 [6]: < 0.004 µM (active)
- EC50 [7]: 25.2 µM (active)
- EC50 [8]: < 0.1 µM (active)

- EC50 [9]: 3.35 µM (active)
Structure (SMILES): CCN1CCCC1CNS(=O)(=O)c1c(C)cc(C)cc1C (configuration not stated)

- IC50 [10]: 43.1 µM (active)
Structure (SMILES): Cc1c(C)c2cc(Cl)c(O)c(CN3CCCC(C)C3)c2oc1=O (configuration not stated)

Structure (SMILES): O=C1c2n[nH]c(-c3ccccc3O)c2C(c2ccccc2F)N1Cc1ccco1 (configuration not stated)
- EC50 [11]: 13.1 µM (active)
- EC50 [12]: 15 µM (active)

Structure (SMILES): COc1ccc(C(=O)N/N=C/c2ccc(OC)c(CN3CCCc4ccccc43)c2)cc1
- IC50 [13]: > 80 µM (inactive)

- IC50 [14]: 13.6 µM (active)
Structure (SMILES): COc1ccc(NC(=O)Cc2c(F)cccc2Cl)cc1

- IC50 [10]: 62.1 µM (active)
Structure (SMILES): Cc1c(N2C(=O)C(O)=C(C(=O)c3ccc(Cl)cc3)C2c2ccccc2)c(=O)n(-c2ccccc2)n1C (configuration not stated)

- IC50 [10]: 11.2 µM (active)
Structure (SMILES): O=C(Nc1ccc(-n2ccnc2P(=O)(O)c2ccccc2)cc1)c1ccccc1Br

- IC50 [14]: 17.4 µM (active)
Structure (SMILES): O=C(CSc1ccccc1C(=O)O)NCc1ccc(Cl)cc1
